Laboratory results taken from US7078178B2, “Methods of altering calcium transport” (priority 1999, dated 2006).

What was measured:
CaT1 mRNA = assay: Northern analysis of CaT1 mRNA in rat duodenum in vivo
Procedure: Northern analysis procedures were as follows. Poly(A)^+ RNA (3 μg) from rat tissues were electrophoresed in formaldehyde-agarose gels and transferred to nitrocellulose membranes. The filters were probed with ^32P-labeled full-length CaT1 cDNA, hybridized at 42° C. with a solution containing 50% formamide, 5×SSPE, 2× Denhardt's solution, 0.1% SDS and 100 μg/ml denatured salmon sperm DNA (and washed with 5×SSC/0.1% SDS at 50° C. for 2×30 minutes and 0.1×SSC at 65° C. for 3×30 minutes. Autoradiography was performed at −80° C. for 1 to 2 days.

CaT1 [1] = target: T1, CaT1 (Rattus norvegicus, UniProt Q9R186); assay: ^45Ca^2+ uptake assay in Xenopus laevis oocytes expressing CaT1; assay type: cell-based; conditions: for inhibition of ^45Ca^2+ uptake: cation 10 mM; for inhibition of ^45Ca^2+ uptake by di- and trivalent cations: 1 mM Ca^2+, cation 100 μM
T1 construct: ID; No. 4; expressed in transfected cells; host or cells: Xenopus laevis oocytes injected with synthetic cRNA of the cloned rat cDNA
T1 sequence (Q9R186 41-767): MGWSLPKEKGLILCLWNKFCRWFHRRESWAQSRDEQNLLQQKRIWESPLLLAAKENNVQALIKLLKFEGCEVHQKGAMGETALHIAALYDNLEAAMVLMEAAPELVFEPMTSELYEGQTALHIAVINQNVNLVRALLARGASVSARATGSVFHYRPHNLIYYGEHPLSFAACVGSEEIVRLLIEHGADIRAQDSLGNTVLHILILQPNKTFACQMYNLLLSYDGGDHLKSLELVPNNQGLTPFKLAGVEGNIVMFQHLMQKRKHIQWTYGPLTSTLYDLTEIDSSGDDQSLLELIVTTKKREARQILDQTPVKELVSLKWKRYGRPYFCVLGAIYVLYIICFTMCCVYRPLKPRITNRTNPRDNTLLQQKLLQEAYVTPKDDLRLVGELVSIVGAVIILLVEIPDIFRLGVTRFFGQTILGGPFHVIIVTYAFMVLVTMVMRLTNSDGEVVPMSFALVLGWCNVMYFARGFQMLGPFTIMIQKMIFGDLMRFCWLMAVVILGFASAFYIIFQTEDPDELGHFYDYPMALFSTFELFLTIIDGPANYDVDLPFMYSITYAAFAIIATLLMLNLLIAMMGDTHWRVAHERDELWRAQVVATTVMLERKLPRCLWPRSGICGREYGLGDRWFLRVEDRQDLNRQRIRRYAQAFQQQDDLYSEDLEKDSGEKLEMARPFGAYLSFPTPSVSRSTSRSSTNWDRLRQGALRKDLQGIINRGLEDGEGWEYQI
Procedure: ^45Ca^2+ uptake assay—Defolliculated Xenopus laevis oocytes were injected with either 50 nl of water or RNA. ^45Ca^2+ uptake was assayed 3 days after injection of poly(A)^+ or 1–3 days a injection of synthetic complementary RNA (cRNA). For expression cloning, oocytes were incubated in modified Barth's solution supplemented with 1 mM SrCl2 (to avoid excessive loading of oocytes with Ca^2+) as well as penicillin, streptomycin and gentamycin at 1 mg/ml. Standard uptake solution contained the following components (in mM): NaCl 100, KCl 2, MgCl2 1, CaCl2 1 (including ^45Ca^2+), Hepes 10, pH 7.5. Uptake was performed at room temperature for 30 minutes (for the expression cloning procedure, 2 hour uptakes were employed), and oocytes were washed 6 times with ice-cold uptake medium plus 20 mM MgCl2. […] Control experiments were performed with the appropriate ethanol and DMSO concentrations. Unless stated specifically, data are presented as means obtained from at least three experiments with 7 to 10 oocytes per group with standard error of the mean (S.E.M.) as the index of dispersion. Statistical significance was defined as having a P value of less than 0.05 as determined by Student's t-test.

CaT1 [2] = target: T1, CaT1; assay: Two-microelectrode voltage clamp of oocytes expressing CaT1; assay type: cell-based; conditions: for current as percentage of the current evoked by 5 mM Ca^2+: 5 mM cation, EGTA-injected oocytes clamped at −50 mV, n=17; for currents evoked by metal ions / effect on Ca^2+-evoked currents: each at 100 μM
Procedure: (§1) Two-microelectrode voltage clamp experiments were performed using standard techniques (see Chen et al., J. Biol. Chem. 274:2773–2779 (1999)) using a commercial amplifier and pCLAMP software (Version 7, Axon Instruments, Inc., Foster City, Calif.). An oocyte was introduced into the chamber containing Ca^2+-free solution and was incubated for about 3 minutes before being clamped at −50 mV and subjected to measurements. In experiments involving voltage ramps or jumps, whole-cell current and voltage were recorded by digitizing at 300 μs/sample and by Bessel filtering at 10 kHz. When recording currents at a holding potential, digitization at 0.2 s/sample and filtering at 20 Hz were employed. Voltage ramping consisted of pre-holding at −150 mV for 200 ms to eliminate capacitive currents and a subsequent linear increase from −150 to +50 mV, with a total duration of […]. Voltage jumping consisted of 150 ms voltage pulses of between −140 and +60 mV, in increments of +20 mV. Steady-state currents were obtained as the average values in the interval from 135 to 145 ms after the initiation of the voltage pulses. For experiments involving voltage-clamped ^45Ca^2+ uptake, Ca^2+-evoked currents and uptake of ^45Ca^2+ were simultaneously measured at −50 mV, using a method similar to that described in Chen et al. (cited above).

[3] = test system: endogenous Ca^2+-activated chloride-channel currents; assay: Block of the peak current in voltage-clamped oocytes by chloride channel blockers; assay type: cell-based, Xenopus laevis; conditions: 5 mM Ca^2+; holding potential −50 mV
Procedure: as §1, with “above). […]” for “above).”

SMILES	inhibition of ^45Ca^2+ uptake by di- and trivalent cations (CaT1 [1])	currents evoked by metal ions (CaT1 [2])	effect on Ca^2+-evoked currents (CaT1 [2])	other results
C=C1/C(=C\C=C2/CCC[C@]3(C)[C@@H]([C@H](C)CCCC(C)(C)O)CC[C@@H]23)C[C@@H](O)C[C@@H]1O [1,25-dihydroxyvitamin D3]	–	–	–	regulation of CaT1 mRNA in rat duodenum (CaT1 mRNA): not regulated
[Ba+2] [Ba^2+]	–	–	–	inhibition of ^45Ca^2+ uptake (CaT1 [1]): only slight inhibitory effects; current as percentage of the current evoked by 5 mM Ca^2+ (CaT1 [2]): 12±2%
[Ca+2] [Ca^2+]	–	–	–	Km (CaT1 [1]; CaT1 expressed in oocytes, read-out: apparent Michaelis constant (Km) of Ca^2+ uptake): 440 ± 70 µM; plateau value of inward current (CaT1 [2]; 5 mM Ca^2+, holding potential −50 mV): 20–50 nA
COc1cc(CNC(=O)CCCC/C=C/C(C)C)ccc1O [Capsaicin, capsaicin]	–	–	–	stimulation of CaT1-mediated ^45Ca^2+ uptake in oocytes (CaT1 [1]; capsaicin up to 50 μM): did not stimulate
[Cd+2] [Cd^2+]	marked to moderate inhibition	did not evoke measurable currents	inhibited	–
[Co+2] [Co^2+]	marked to moderate inhibition	did not evoke measurable currents	inhibited	–
[Cu+2] [Cu^2+]	marked to moderate inhibition	did not evoke measurable currents	inhibited	–
O=C(O)CN(CCOCCOCCN(CC(=O)O)CC(=O)O)CC(=O)O [EGTA, ethylene glycol-bis(β-aminoethylether)-N,N,N′,N′-tetraacetic acid]	–	–	–	increase in Ca^2+ uptake (CaT1 [1]; EGTA injected into oocytes to a final concentration of 1–2 mM): three- to five-fold increase; effect on overshoot of Ca^2+-evoked inward current (CaT1 [2]; EGTA injected to a final concentration of 1–2 mM, −50 mV): abolished the overshoot
[Fe+3] [Fe^3+]	no significant effects	did not evoke measurable currents	no observable effects	–
[Gd+3] [Gd^3+]	marked to moderate inhibition	did not evoke measurable currents	inhibited	–
[La+3] [La^3+]	marked to moderate inhibition	did not evoke measurable currents	inhibited	–
[Mg+2] [Mg^2+]	–	–	–	inhibition of ^45Ca^2+ uptake (CaT1 [1]): no significant inhibition; blocker of CaT1 (CaT1 [2]): nor an effective blocker; substrate of CaT1 (CaT1 [2]; up to 20 mM): neither a substrate
[Mn+2] [Mn^2+]	no significant effects	did not evoke measurable currents	no observable effects	–
[Na+] [Na^+]	–	–	–	Ca^2+ entry with extracellular Na^+ (CaT1 [1]; non-clamped oocytes, Ca^2+ applied for 30 minutes): enhanced; Ca^2+-evoked currents in the presence versus absence of Na^+ (CaT1 [2]; 100 mM Na^+): slightly lower
[Ni+2] [Ni^2+]	–	did not evoke measurable currents	inhibited	–
[Pb+2] [Pb^2+]	marked to moderate inhibition	did not evoke measurable currents	inhibited	–
[Sr+2] [Sr^2+]	–	–	–	inhibition of ^45Ca^2+ uptake (CaT1 [1]): only slight inhibitory effects; current as percentage of the current evoked by 5 mM Ca^2+ (CaT1 [2]): 20±4%
[Zn+2] [Zn^2+]	–	did not evoke measurable currents	no observable effects	–
O=C(O)c1ccccc1Nc1cccc(C(F)(F)F)c1 [flufenamate]	–	–	–	block of the peak current [3]: could be blocked
C/C=C(/C)C(=O)O[C@H]1C(C)=C2[C@H]([C@@H]1OC(=O)CCCCCCC)[C@@](C)(OC(C)=O)C[C@H](OC(=O)CCC)[C@@]1(O)[C@H]2OC(=O)[C@@]1(C)O [thapsigargin]	–	–	–	CaT1-mediated Ca^2+ activity relative to its baseline activity (CaT1 [1]; depletion of calcium stores by thapsigargin treatment): about 20%
